# Laboratory results reported in patent EP0726261A1, “Herbidical 1,2,4 thiadiazoles” (American Cyanamid Company, priority 1995, dated 1996).
# Key:
# Assay type in all cases: in vivo
# [1] = test system: Triticum aestivum; experiment: Preemergence herbicidal activity (Example 67); set-up: herbicide rating, TRZAW: scale not given here; conditions: pre, 800 g/ha; for herbicide rating, TRZAW: rated about 1-3 weeks after treatment
# Procedure: (§1) Herbicidal evaluation of compounds of the invention is conducted on the following plant species:
# (§2) The soil is a prepared horticultural substrate containing 30% peat, 20% volcanic clay, 30% bark residues and 20% polyamide/styromull in a 1:3 mixture with loamy sand. Test solutions are prepared by dissolving the test compound in acetone containing 0.5% of an alkylphenol/ethylene oxide condensate under the trademark, TRITON® X-155, and diluting with water as needed. The test solutions are applied as a spray to the 3-6 week old seedling plants at dose rates corresponding to 800g/ha in a volume equivalent to 400 L/ha. A pneumatic spraying device employing a Teejet nozzle SS 8002E operating at 3 bar is used for a predetermined time. After spraying, the treated plants are placed on greenhouse benches and cared for in a manner commensurate with conventional greenhouse practice. After 10-21 days, the treated plants are evaluated and rated according to the rating system provided below.
# (§3) The soil surface is then sprayed with test solutions as described in the postemergence evaluation hereinabove. After spraying, the treated cups are placed on greenhouse benches and cared for in the manner commensurate with conventional greenhouse practice. About 1-3 weeks after treatment the cups are evaluated and rated according to the rating system provided hereinabove.
# [2] = test system: Hordeum vulgare; experiment: Preemergence herbicidal activity (Example 67); set-up: herbicide rating, HORVW: scale not given here; conditions: pre, 800 g/ha; for herbicide rating, HORVW: rated about 1-3 weeks after treatment
# Procedure: as §1, §2, §3
# [3] = test system: Alopecurus myosuroides; experiment: Preemergence herbicidal activity (Example 67); set-up: herbicide rating, ALOMY: scale not given here; conditions: pre, 800 g/ha; for herbicide rating, ALOMY: rated about 1-3 weeks after treatment
# Procedure: as §1, §2, §3
# [4] = test system: Setaria viridis; experiment: Preemergence herbicidal activity (Example 67); set-up: herbicide rating, SETVI: scale not given here; conditions: pre, 800 g/ha; for herbicide rating, SETVI: rated about 1-3 weeks after treatment
# Procedure: as §1, §2, §3
# [5] = test system: Abutilon theophrasti; experiment: Preemergence herbicidal activity (Example 67); conditions: pre, 800 g/ha; for herbicide rating, ABUTH: rated about 1-3 weeks after treatment
# Procedure: as §1, §2, §3
# [6] = test system: Amaranthus retroflexus; experiment: Preemergence herbicidal activity (Example 67); conditions: pre, 800 g/ha; for herbicide rating, AMARE: rated about 1-3 weeks after treatment
# Procedure: as §1, §2, §3
# [7] = test system: Chenopodium album; experiment: Preemergence herbicidal activity (Example 67); conditions: pre, 800 g/ha; for herbicide rating, CHEAL: rated about 1-3 weeks after treatment
# Procedure: as §1, §2, §3
# [8] = test system: Galium aparine; experiment: Preemergence herbicidal activity (Example 67); conditions: pre, 800 g/ha; for herbicide rating, GALAP: rated about 1-3 weeks after treatment
# Procedure: as §1, §2, §3
# [9] = test system: Helianthus annuus; experiment: Preemergence herbicidal activity (Example 67); conditions: pre, 800 g/ha; for herbicide rating, HELAN: rated about 1-3 weeks after treatment
# Procedure: as §1, §2, §3
# [10] = test system: Ipomoea hederacea; experiment: Preemergence herbicidal activity (Example 67); conditions: pre, 800 g/ha; for herbicide rating, IPOHE: rated about 1-3 weeks after treatment
# Procedure: as §1, §2, §3
# [11] = test system: Veronica persica; experiment: Preemergence herbicidal activity (Example 67); conditions: pre, 800 g/ha; for herbicide rating, VERPE: rated about 1-3 weeks after treatment
# Procedure: as §1, §2, §3
# [12] = test system: Zea mays; experiment: Preemergence herbicidal activity (Example 67); conditions: pre, 800 g/ha; for herbicide rating, ZEAMX: rated about 1-3 weeks after treatment
# Procedure: as §1, §2, §3
# [13] = test system: Abutilon theophrasti; experiment: Postemergence herbicidal activity (Example 67); conditions: pos, 800 g/ha; for herbicide rating, ABUTH: rated after 10-21 days
# Procedure: as §1, §2
# [14] = test system: Alopecurus myosuroides; experiment: Postemergence herbicidal activity (Example 67); conditions: pos, 800 g/ha; for herbicide rating, ALOMY: rated after 10-21 days
# Procedure: as §1, §2
# [15] = test system: Amaranthus retroflexus; experiment: Postemergence herbicidal activity (Example 67); conditions: pos, 800 g/ha; for herbicide rating, AMARE: rated after 10-21 days
# Procedure: as §1, §2
# [16] = test system: Chenopodium album; experiment: Postemergence herbicidal activity (Example 67); conditions: pos, 800 g/ha; for herbicide rating, CHEAL: rated after 10-21 days
# Procedure: as §1, §2
# [17] = test system: Galium aparine; experiment: Postemergence herbicidal activity (Example 67); conditions: pos, 800 g/ha; for herbicide rating, GALAP: rated after 10-21 days
# Procedure: as §1, §2
# [18] = test system: Helianthus annuus; experiment: Postemergence herbicidal activity (Example 67); conditions: pos, 800 g/ha; for herbicide rating, HELAN: rated after 10-21 days
# Procedure: as §1, §2
# [19] = test system: Hordeum vulgare; experiment: Postemergence herbicidal activity (Example 67); conditions: pos, 800 g/ha; for herbicide rating, HORVW: rated after 10-21 days
# Procedure: as §1, §2
# [20] = test system: Ipomoea hederacea; experiment: Postemergence herbicidal activity (Example 67); conditions: pos, 800 g/ha; for herbicide rating, IPOHE: rated after 10-21 days
# Procedure: as §1, §2
# [21] = test system: Setaria viridis; experiment: Postemergence herbicidal activity (Example 67); conditions: pos, 800 g/ha; for herbicide rating, SETVI: rated after 10-21 days
# Procedure: as §1, §2
# [22] = test system: Triticum aestivum; experiment: Postemergence herbicidal activity (Example 67); conditions: pos, 800 g/ha; for herbicide rating, TRZAW: rated after 10-21 days
# Procedure: as §1, §2
# [23] = test system: Veronica persica; experiment: Postemergence herbicidal activity (Example 67); conditions: pos, 800 g/ha; for herbicide rating, VERPE: rated after 10-21 days
# Procedure: as §1, §2
# [24] = test system: Zea mays; experiment: Postemergence herbicidal activity (Example 67); conditions: pos, 800 g/ha; for herbicide rating, ZEAMX: rated after 10-21 days
# Procedure: as §1, §2
smiles,measurement,setting,value
"CC(NC(=O)c1nsc(-c2cccc(C(F)(F)F)c2)n1)c1cccs1 (racemic) [Example 3, (R/S)-5-(3-Trifluoromethylphenyl)-[1,2,4]thiadiazole-3-carboxylic acid, [1-(2-thienyl)ethyl]amide]","herbicide rating, TRZAW",[1],0
same,"herbicide rating, HORVW",[2],0
same,"herbicide rating, ALOMY",[3],0
same,"herbicide rating, SETVI",[4],0
same,"herbicide rating, ABUTH",[5],0
same,"herbicide rating, AMARE",[6],0
same,"herbicide rating, CHEAL",[7],3 (16-29%)
same,"herbicide rating, GALAP",[8],0
same,"herbicide rating, HELAN",[9],0
same,"herbicide rating, IPOHE",[10],0
same,"herbicide rating, VERPE",[11],0
same,"herbicide rating, ZEAMX",[12],0
same,"herbicide rating, ABUTH",[13],1 (1-5%)
same,"herbicide rating, ALOMY",[14],3 (16-29%)
same,"herbicide rating, AMARE",[15],2 (6-15%)
same,"herbicide rating, CHEAL",[16],4 (30-44%)
same,"herbicide rating, GALAP",[17],2 (6-15%)
same,"herbicide rating, HELAN",[18],4 (30-44%)
same,"herbicide rating, HORVW",[19],2 (6-15%)
same,"herbicide rating, IPOHE",[20],3 (16-29%)
same,"herbicide rating, SETVI",[21],8 (91-99%)
same,"herbicide rating, TRZAW",[22],2 (6-15%)
same,"herbicide rating, VERPE",[23],0
same,"herbicide rating, ZEAMX",[24],1 (1-5%)
CCCCc1nsc(C(=O)NC(C)c2cccs2)n1 (racemic) [Example 25],"herbicide rating, TRZAW",[1],0
same,"herbicide rating, HORVW",[2],0
same,"herbicide rating, ALOMY",[3],0
same,"herbicide rating, SETVI",[4],0
same,"herbicide rating, ABUTH",[5],0
same,"herbicide rating, AMARE",[6],0
same,"herbicide rating, CHEAL",[7],6 (65-79%)
same,"herbicide rating, GALAP",[8],0
same,"herbicide rating, HELAN",[9],0
same,"herbicide rating, IPOHE",[10],0
same,"herbicide rating, VERPE",[11],4 (30-44%)
same,"herbicide rating, ZEAMX",[12],0
same,"herbicide rating, ABUTH",[13],6 (65-79%)
same,"herbicide rating, ALOMY",[14],4 (30-44%)
same,"herbicide rating, AMARE",[15],3 (16-29%)
same,"herbicide rating, CHEAL",[16],6 (65-79%)
same,"herbicide rating, GALAP",[17],6 (65-79%)
same,"herbicide rating, HELAN",[18],7 (80-90%)
same,"herbicide rating, HORVW",[19],3 (16-29%)
same,"herbicide rating, IPOHE",[20],5 (45-64%)
same,"herbicide rating, SETVI",[21],8 (91-99%)
same,"herbicide rating, TRZAW",[22],2 (6-15%)
same,"herbicide rating, VERPE",[23],3 (16-29%)
same,"herbicide rating, ZEAMX",[24],0
"CC(NC(=O)c1nc(-c2c(F)cccc2F)ns1)c1cccs1 (racemic) [Example 58, (R/S)-3-(2,6-Difluorophenyl)-[1,2,4]thiadiazole-5-carboxylic acid, [1-(2-thienyl)ethyl]amide]",TRZ AW rating,[1],0
same,HOR VW rating,[2],0
same,SET VI rating,[4],0
same,AMA RE rating,[6],0
same,CHE AL rating,[7],0
same,GAL AP rating,[8],0
same,HEL AN rating,[9],0
same,VER PE rating,[11],0
same,ZEA MX rating,[12],0
same,AMA RE rating,[15],7 (80-90%)
same,CHE AL rating,[16],6 (65-79%)
same,GAL AP rating,[17],6 (65-79%)
same,HEL AN rating,[18],9 (100% effect)
same,HOR VW rating,[19],3 (16-29%)
same,SET VI rating,[21],2 (6-15%)
same,TRZ AW rating,[22],2 (6-15%)
same,VER PE rating,[23],4 (30-44%)
same,ZEA MX rating,[24],0
COc1ccc(-c2nsc(C(=O)NC(C)c3ccsc3)n2)cc1 (racemic) [Example 61],TRZ AW rating,[1],0
same,HOR VW rating,[2],0
same,ALO MY rating,[3],0
same,SET VI rating,[4],0
same,ABU TH rating,[5],0
same,AMA RE rating,[6],0
same,GAL AP rating,[8],0
same,HEL AN rating,[9],0
same,IPO HE rating,[10],0
same,VER PE rating,[11],0
same,ZEA MX rating,[12],0
same,ABU TH rating,[13],0
same,ALO MY rating,[14],1 (1-5%)
same,AMA RE rating,[15],0
same,GAL AP rating,[17],0
same,HEL AN rating,[18],2 (6-15%)
same,HOR VW rating,[19],0
same,IPO HE rating,[20],0
same,SET VI rating,[21],0
same,TRZ AW rating,[22],0
same,VER PE rating,[23],0
same,ZEA MX rating,[24],0
"C[C@H](NC(=O)c1nc(-c2c(F)cccc2F)ns1)c1ccccc1 [Example 59, (S)-3-(2,6-Difluorophenyl)-[1,2,4]thiadiazole-5-carboxylic acid, 1-(phenylethyl)amide]",TRZ AW rating,[1],0
same,HOR VW rating,[2],0
same,SET VI rating,[4],3 (16-29%)
same,AMA RE rating,[6],3 (16-29%)
same,CHE AL rating,[7],0
same,GAL AP rating,[8],3 (16-29%)
same,HEL AN rating,[9],0
same,VER PE rating,[11],6 (65-79%)
same,ZEA MX rating,[12],0
same,AMA RE rating,[15],8 (91-99%)
same,CHE AL rating,[16],7 (80-90%)
same,GAL AP rating,[17],6 (65-79%)
same,HEL AN rating,[18],6 (65-79%)
same,HOR VW rating,[19],3 (16-29%)
same,SET VI rating,[21],3 (16-29%)
same,TRZ AW rating,[22],3 (16-29%)
same,VER PE rating,[23],8 (91-99%)
same,ZEA MX rating,[24],0
O=C(NCc1cccs1)c1nc(-c2c(F)cccc2F)ns1 [Example 60],TRZ AW rating,[1],0
same,HOR VW rating,[2],0
same,SET VI rating,[4],0
same,AMA RE rating,[6],0
same,CHE AL rating,[7],0
same,GAL AP rating,[8],0
same,HEL AN rating,[9],0
same,VER PE rating,[11],0
same,ZEA MX rating,[12],0
same,AMA RE rating,[15],5 (45-64%)
same,CHE AL rating,[16],0
same,GAL AP rating,[17],0
same,HEL AN rating,[18],3 (16-29%)
same,HOR VW rating,[19],0
same,SET VI rating,[21],0
same,TRZ AW rating,[22],0
same,VER PE rating,[23],0
same,ZEA MX rating,[24],3 (16-29%)
